Data reported in article PMC10628124, “Elevator-like movements of prestin mediate outer hair cell electromotility” (Nature Communications, 2023).

Assays:
Format in all cases: cell-based
[1] = target: T1, zPres (Danio rerio, UniProt Q7T2C4, R505K, form not given); test: whole-cell patch clamp, oxalate-chloride counter-transport current, CHO cells; details: 106 mM intracellular oxalate; extracellular chloride; current at 0 mV; GFP fusion
T1 construct: gene slc26a5; full length; C-terminal GFP fusion in CHO cells (pEGFP-N1); in Xenopus oocytes (pGEMHE) with functionally silent R505K; homodimer
T1 sequence (Q7T2C4 1-739 R505K): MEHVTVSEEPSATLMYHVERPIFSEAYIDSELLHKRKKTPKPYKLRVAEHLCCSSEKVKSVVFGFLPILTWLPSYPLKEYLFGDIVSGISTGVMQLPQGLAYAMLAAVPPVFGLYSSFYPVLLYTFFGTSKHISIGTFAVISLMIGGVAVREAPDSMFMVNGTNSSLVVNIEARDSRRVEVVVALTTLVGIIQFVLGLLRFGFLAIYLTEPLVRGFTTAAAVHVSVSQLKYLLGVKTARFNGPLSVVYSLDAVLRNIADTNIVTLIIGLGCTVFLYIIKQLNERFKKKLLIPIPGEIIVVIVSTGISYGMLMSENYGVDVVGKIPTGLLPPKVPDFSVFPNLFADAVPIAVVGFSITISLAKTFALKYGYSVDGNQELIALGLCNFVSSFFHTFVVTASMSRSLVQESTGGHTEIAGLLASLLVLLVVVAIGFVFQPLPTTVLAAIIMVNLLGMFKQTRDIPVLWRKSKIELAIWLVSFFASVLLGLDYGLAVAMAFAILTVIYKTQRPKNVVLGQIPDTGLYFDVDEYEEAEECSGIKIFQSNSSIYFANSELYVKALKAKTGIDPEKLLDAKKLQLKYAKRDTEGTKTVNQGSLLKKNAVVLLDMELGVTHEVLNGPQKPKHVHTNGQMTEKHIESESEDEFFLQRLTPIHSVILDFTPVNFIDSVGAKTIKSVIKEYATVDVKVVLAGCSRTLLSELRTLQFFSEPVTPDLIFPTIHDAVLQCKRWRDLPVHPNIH

[2] = target: T2, zPres (Danio rerio, UniProt Q7T2C4, R505K); test: whole-cell patch clamp, non-linear capacitance, CHO cells; details: 10 mM extracellular salicylate; 160 mM intracellular Cl-; pH 7.4; zPres-GFP; inhibition
T2 construct: gene slc26a5; full length; C-terminal GFP fusion in CHO cells (pEGFP-N1); in Xenopus oocytes (pGEMHE) with functionally silent R505K; homodimer
T2 sequence (Q7T2C4 1-739 R505K): T1 sequence (Q7T2C4 1-739 R505K)

[3] = target: T3, rPres (Rattus norvegicus, UniProt Q9EPH0, R150C); test: voltage-clamp fluorometry, Xenopus oocytes; details: 10 mM extracellular salicylate; labelled at C150 with MTS-TAMRA; signal suppressed, V1/2 depolarized
T3 construct: gene Slc26a5; full length; C-terminal 6xHis tag in Xenopus oocytes (pGEMHE); homodimer
T3 sequence (Q9EPH0 1-744 R150C): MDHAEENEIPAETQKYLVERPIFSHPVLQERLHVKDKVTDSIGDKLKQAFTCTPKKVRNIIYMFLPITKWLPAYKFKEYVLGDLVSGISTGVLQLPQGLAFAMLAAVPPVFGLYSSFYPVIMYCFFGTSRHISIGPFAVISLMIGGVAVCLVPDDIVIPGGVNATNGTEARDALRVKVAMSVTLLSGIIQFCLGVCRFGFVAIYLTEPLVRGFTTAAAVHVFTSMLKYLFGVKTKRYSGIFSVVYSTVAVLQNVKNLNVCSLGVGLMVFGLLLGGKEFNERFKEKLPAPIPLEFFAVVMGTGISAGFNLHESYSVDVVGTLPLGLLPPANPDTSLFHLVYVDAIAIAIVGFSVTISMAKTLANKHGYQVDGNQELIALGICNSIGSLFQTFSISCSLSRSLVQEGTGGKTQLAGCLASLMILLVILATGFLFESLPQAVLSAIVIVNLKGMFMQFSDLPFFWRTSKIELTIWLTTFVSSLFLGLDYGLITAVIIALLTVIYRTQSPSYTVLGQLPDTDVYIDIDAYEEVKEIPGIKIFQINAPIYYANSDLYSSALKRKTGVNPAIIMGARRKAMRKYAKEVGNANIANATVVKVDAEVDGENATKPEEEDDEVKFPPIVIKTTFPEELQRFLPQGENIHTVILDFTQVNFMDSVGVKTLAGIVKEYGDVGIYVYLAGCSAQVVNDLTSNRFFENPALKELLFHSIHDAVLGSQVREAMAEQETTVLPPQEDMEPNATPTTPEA

For `O=C(O)C(=O)O` [oxalate], the “whole-cell patch clamp, oxalate-chloride counter-transport current, CHO cells” value [1] was “monitored as the electrogenic oxalate-chloride counter-transport current by whole-cell patch-clamping”.
With `O=C(O)c1ccccc1O` [salicylate] the “whole-cell patch clamp, non-linear capacitance, CHO cells” value [2] was “NLC recorded from cells expressing zPres was readily inhibited by salicylate” and the “voltage-clamp fluorometry, Xenopus oocytes” value [3] was “salicylate, suppressed the voltage-dependent fluorescence signals of rPres-R150C-TAMRA”.
